What was measured:
[1] = system: Total P53, MDM2, P21, AKR1C3 proteins in H460 cells; experiment: WB detection ± Nutlin-3 in H460 and H460 P53 KO cells; assay type: cell-based; details: wild-type H460 cells; 5 µM Nutlin-3, 24h; compared with the H460 wild-type DMSO group (Figures 33, 34)
Experimental: • 1) H460 and H460 P53 KO cell suspensions were added to 24-well plates, with a cell density of 100000 cells/well and 995 µL of medium per well. • 2) The cells were cultured overnight in a 37°C, 5% CO2 incubator. • 3) Compound Treatment
24 hours after cell plating, according to the protocol, the experimental groups for each cell line were as follows: H460 WT non-treatment group, H460 P53 KO # 1 non-treatment group, H460 P53 KO # 7 non-treatment group, H460 P53 KO # 8 non-treatment group, H460 P53 KO # 12 non-treatment group, H460 WT 0.1% DMSO treatment group, H460 WT 5 µM Nutlin-3 treatment group, H460 P53 KO # 1 5 µM Nutlin-3 treatment group, H460 P53 KO # 7 5 µM Nutlin-3 treatment group, H460 P53 KO # 8 5 µM Nutlin-3 treatment group, and H460 P53 KO # 12 5 µM Nutlin-3 treatment group.
Monotherapy: 24 hours after cell plating, 5 µL of test compounds at different concentrations was added. […]
• 1) The cell plates were taken out and the medium supernatant was discarded. […] The cells were scraped off with a cell scraper, lysed on ice for 30 min, and centrifuged at 14000 rpm at 4°C for 10 min. • 2) Protein quantification was performed using the BCA assay. […] After the incubation, the membranes were washed three times with TBST (10 min per wash).The ECL luminescence solutions A and B (SuperSignal West Femto Maximum Sensitivity) were mixed and added to the membranes blotting dry. […]

H460 cells [2] = experiment: Cell cycle G2/M arrest, PI staining and flow cytometry; assay type: cell-based; details: 0.1 nM AST-3424, 5 µM Nutlin-3, 24 hours, combination: AST-3424 added first (Figure 9)
Experimental: (§1) • 1) H460/HPAF-II cell suspensions were added to a 24-well plate, with a cell density of 100000 cells/well and 995 µL of medium per well. • 2) The cells were cultured overnight in a 37°C, 5% CO2 incubator. • 3) Compound Treatment
(§2) 24 hours after cell plating, according to the protocol, the experimental groups for each cell line were as follows: Monotherapy: 24 hours after cell plating, 5 µL of test compounds at different concentrations was added: 1% DMSO, 5 µM Nutlin-3, and 0.1 nM AST-3424. The plate was gently shaken to ensure even mixing, and then placed in a 37°C, 5% CO2 incubator.
(§3) • Cells were pretreated with AST-3424 for 2 hours, and then co-treatment with Nutlin-3 for 24 hours; • cells were pretreated with Nutlin-3 for 2 hours, and then co-treatment with AS -3424 for 24 hours; and • cells were co-treated with AST-3424 and Nutlin-3 for 24 hours. • 4) The cells were digested, centrifuged at 1000 g at 4°C, washed once with pre-cooled PBS, centrifuged at 1000 g at 4°C, and fixed with 1 mL of pre-cooled 70% ethanol at - 20°C overnight. • 5) The cells were centrifuged at 3000 g at 4°C, washed once with pre-cooled PBS (phosphate buffer), and centrifuged at 3000g at 4°C. PI staining solution was prepared. The cells were stained at 37°Cfor 30 minutes (protected from light), and stored in an ice bath (protected from light). The cells were detected using a flow cytometer on the same day, and the proportions of cells in different cell cycle phases was analyzed using FlowJo.
The remaining operations were similar to those of the above experiment, and the compound treatment was as follows: […]

HPAF-II cells [3] = experiment: as above; assay type: cell-based, human; details: HPAF-II cells with p53 pathogenic mutations; 0.1 nM AST-3424, 5 µM Nutlin-3 (Figure 9)
Experimental: as §1, §2
as §3, with “The cells were stained at 37°Cfor 30 minutes (protected from light), and stored in an ice bath (protected from light).” left out

[4] = system: Ser15-p53, Ser20-p53, Total p53, MDM2, and p21 proteins in H460 cells; experiment: WB detection of p53 protein pathway (Ser15-p53, Ser20-p53, Total p53, MDM2, p21); assay type: cell-based; details: second experiment: 0.1, 0.3, 1 nM AST-3424 ± 5 µM Nutlin-3, 24 hours, AST-3424 dose-dependent (Figure 16)
Experimental: • 1) H460 cell suspension was added to a 24-well plate, with a cell density of 80000 cells/well and 995 µL of medium per well. • 2) The cells were cultured overnight in a 37°C, 5% CO2 incubator. • 3) Compound Treatment
24 hours after cell plating, according to the protocol, the experimental groups for each cell line were as follows: • Monotherapy: 24 hours after cell plating, 5 µL of test compounds at different concentrations was added: 0.5% DMSO, 0.1 nM AST-3424, and 5 µM Nutlin-3. The plate was gently shaken to ensure even mixing, and then placed in a 37°C, 5% CO2 incubator. • Combination therapy: 24 hours after cell plating, 5 µL of test compounds at different concentrations was added. After pre-treatment with 5 µM Nutlin-3 for 2 hours, 0.1 nM AST-3424 was added. The plate was gently shaken to ensure even mixing, and then placed in a 37°C, 5% CO2 incubator.
4) Cell protein lysates were collected for WB detection.
• Adding 0.1 nM AST-3424 for pre-treatment for 2 hours, and then adding 5 µM Nutlin-3 for co-treatment for 22 hours; • Adding 0.3 nM AST-3424 for pre-treatment for 2 hours, and then adding 5 µM Nutlin-3 for co-treatment for 22 hours; • Adding 1 nM AST-3424 for pre-treatment for 2 hours, and then adding 5 µM Nutlin-3 for co-treatment for 22 hours. […]

HPAF-II cells [5] = experiment: In vitro proliferation inhibition experiment (CTG, 72 hours), Example 20; assay type: cell-based, human; details: Table 14, HPAF-II
Experimental: (§4) • 1) H460 and HPAF-II cell suspensions were added to a 96-well plate (100 µL per well), with cell densities of 2000 cells/well and 20000 cells/well, respectively. • 2) The cells were cultured overnight in a 37°C, 5% CO2 incubator. • 3) Compound Treatment
(§5) Combination therapy: 24 hours after cell plating, each well was supplemented with 99 µL of growth medium. Then, 0.5 µL of Nutlin-3 or RITA was added to each well. The plate was gently shaken to ensure even mixing, and then placed in an incubator for 2 hours. Then, 0.5 µL of test compounds at different concentrations was added. The plate was gently shaken to ensure even mixing, and then placed in a 37°C, 5% CO2 incubator.
(§6) Monotherapy: 24 hours after cell plating, each well was supplemented with 99.5 µL of growth medium. Then, 0.5 µL of test compounds at different concentrations was added. The plate was gently shaken to ensure even mixing, and then placed in a 37°C, 5% CO2 incubator. • 4) The cell plate was placed in the incubator for 72 hours. • 5) The cell plate to be tested was placed at room temperature and equilibrated for 30 minutes, and 100 µL of medium was discarded from each well. • 6) 25 µL of CTG reagent was added to each well, placed on a fast shaker to shake for 2 minutes, and placed at room temperature for 30 minutes (protected from light). • 7) The chemiluminescence signal value was read using a multifunctional microplate reader with a reading time of 1000 ms, and the corresponding inhibition rate data were calculated.

H460 cells [6] = experiment: as above; assay type: cell-based
Experimental: as §4, §5, §6

COc1ccc(C2=N[C@@H](c3ccc(Cl)cc3)[C@@H](c3ccc(Cl)cc3)N2C(=O)N2CCNC(=O)C2)c(OC(C)C)c1 [Nutlin-3]
expressions of MDM2, P53, P21, and AKR1C3 proteins [1]: all upregulated
cell cycle (G0/G1, S, G2/M phases) (H460 cells [2]): does not significantly alter the cell cycle
cell cycle (G0/G1, S, G2/M phases) (HPAF-II cells [3]): has no effect
phosphorylation of p53 (Ser15-p53 and Ser20-p53), protein expression of total-p53, expression of MDM2 and p21 [4]: upregulates
Inhibition rate result / % (HPAF-II cells [5]; group 1: AST 20 nM, Nutlin-3 7.5 µM, AST + Nutlin-3 20+7.5): 8.54%
Inhibition rate result / % (HPAF-II cells [5]; group 2: AST 20 nM, Nutlin-3 10 µM, AST + Nutlin-3 20+10): 52.46%
Inhibition rate result / % (HPAF-II cells [5]; group 3: AST 20 nM, Nutlin-3 15 µM, AST + Nutlin-3 20+15): 73.93%
Inhibition rate result / % (HPAF-II cells [5]; group 4: AST 60 nM, Nutlin-3 7.5 µM, AST + Nutlin-3 60+7.5): 8.54%
Inhibition rate result / % (HPAF-II cells [5]; group 5: AST 60 nM, Nutlin-3 10 µM, AST + Nutlin-3 60+10): 52.46%
Inhibition rate result / % (HPAF-II cells [5]; group 6: AST 60 nM, Nutlin-3 15 µM, AST + Nutlin-3 60+15): 73.93%
Inhibition rate result / % (H460 cells [6]; Table 12, H460, group 1: AST 0.5 nM, Nutlin-3 0.25 µM, AST + Nutlin-3 0.5+0.25): 11.8%
Inhibition rate result / % (H460 cells [6]; Table 12, H460, group 2: AST 0.5 nM, Nutlin-3 0.5 µM, AST + Nutlin-3 0.5+0.5): 17.27%
Inhibition rate result / % (H460 cells [6]; Table 12, H460, group 3: AST 0.5 nM, Nutlin-3 1 µM, AST + Nutlin-3 0.5+1): 18.3%
Inhibition rate result / % (H460 cells [6]; Table 12, H460, group 4: AST 1.5 nM, Nutlin-3 0.25 µM, AST + Nutlin-3 1.5+0.25): 11.8%
Inhibition rate result / % (H460 cells [6]; Table 12, H460, group 5: AST 1.5 nM, Nutlin-3 0.5 µM, AST + Nutlin-3 1.5+0.5): 17.27%
Inhibition rate result / % (H460 cells [6]; Table 12, H460, group 6: AST 1.5 nM, Nutlin-3 1 µM, AST + Nutlin-3 1.5+1): 18.3%
